Earlier results as cited in patent publication US20190192552A1, “PHARMACEUTICAL COMPOSITIONS AND METHODS FOR TREATING KELOIDS, HY[…] AND WOUNDS, AND FOR PROVIDING IMPROVED SKIN CARE” (Cormedix Inc., priority 2017, published 2019).

Tested on: Microbes
Settings: microbes killed and resulting toxins inactivated

O=S1(=O)CCN(CN2CCS(=O)(=O)NC2)CN1 [taurolidine, 4,4′-methylene-bis(tetrahydro-1,2,4-thiadiazine)-1,1,1′,1′,-tetraoxide]
destruction time in vitro: approximately 30 minutes
